The source of these data is patent US11365196B2, “FGFR inhibitor and application thereof” (Betta Pharmaceuticals Co., Ltd., priority 2017, dated 2022).

The structures appear in SMILES notation. Like-named read-outs stand apart in the source and are kept apart here.

In one experiment the test system is NCI-H1581 cells. As to the kind of experiment: Cell proliferation assay on NCI-H1581 (Table 7). The experiment is classed as cell-based, human. The source says:
(§1) Test method: adding the appropriate volume of whole medium and the cells was suspended.

Experiment [1] relates to RT-112 (human bladder cancer cell). Description: Cell proliferation assay, CellTiter Glo (Table 9). The experiment is classed as cell-based. For orientation: Cellular ATP, detected with luciferase, serves as a proxy for viable cell number.
Procedure: (§5) Test method: 100 μl of the cell suspension was added to a 96-well plate and placed in a CO2 incubator overnight. Test compounds were dissolved in DMSO and subjected to a 3-fold gradient dilution for a total of 10 concentrations. The test compound or DMSO was transferred to the corresponding cell wells respectively and was incubated for 96 hrs in 5% CO2 at 37° C. 100 μl of CellTiter-Glo reagent was added to the assay plate and incubated for 10 min at room temperature to stabilize the luminescence signal. The IC50 value was calculated by recording the RLU (relative luminescence unit) using Enspire.
The subject of experiment [2] is OPM-2 (human myeloma cell). As to the kind of experiment: Cell proliferation assay, CellTiter Glo (Table 9). It counts as cell-based.
Procedure: as §5
For experiment [3], the system named is NCI-H716 (human colorectal cancer cell). As to the kind of experiment: Cell proliferation assay, CellTiter Glo (Table 9). The experiment is classed as cell-based.
Procedure: as §5
Experiment [4] has as its system MFE-296 (human endometrial cancer cells). Description: Cell proliferation assay, CellTiter Glo (Table 9). The experiment is classed as cell-based. Conditions: WIFE-296 [sic].
Procedure: as §5
The subject of experiment [5] is JHH-7 (human hepatoma cell). As to the kind of experiment: Cell proliferation assay, CellTiter Glo (Table 9). It counts as cell-based.
Procedure: as §5
For experiment [6], the system named is DMS 114 (human lung cancer cell). As to the kind of experiment: Cell proliferation assay, CellTiter Glo (Table 9). The experiment is classed as cell-based.
Procedure: as §5
The test system of experiment [7] is SNU-16 (human gastric cancer cell). Description: Cell proliferation assay, CellTiter Glo (Table 9). It counts as cell-based.
Procedure: as §5
Experiment [8] has as its system MDA-MB-453 (human breast cancer cell). As to the kind of experiment: Cell proliferation assay, CellTiter Glo (Table 9). It counts as cell-based.
Procedure: as §5
For experiment [9], the system named is NCI-H1581 (human non-small cell lung cancer cells). As to the kind of experiment: Cell proliferation assay, CellTiter Glo (Table 9). It counts as cell-based.
Procedure: as §5
The test system of experiment [10] is RT4 (human bladder cancer cell). Description: Cell proliferation assay, CellTiter Glo (Table 9). It counts as cell-based. Particulars: 96 hrs.
Procedure: as §5
Experiment [11] addresses T1, FGFR4 (Homo sapiens (Human), UniProt P22455). As to the kind of experiment: Kinase assay Method 1, mobility shift assay. The experiment is classed as biochemical. Conditions: ATP at Km, numeric values, read-out: IC50(nM) value of compounds FGFR4.
The target of a further experiment is FGFR2 (Homo sapiens (Human), UniProt P21802). Description: Kinase assay Method 2, isotope-labeled 33P-ATP method. The experiment is classed as biochemical. Particulars: ATP at Km, filter-binding, read-out: IC50(nM) value of compounds, FGFR2. The method, then: (§2) Reagent: basic kinase buffer: 20 mM Hepes (pH 7.5), 10 mM MgCl2, 1 mM EGTA, 0.02% Brij35, 0.02 mg/mL BSA, 0.1 mM Na3VO4, 2 mM DTT, 1% DMSO
(§3) Adding the corresponding coenzyme factor to each kinase reaction
(§4) Reaction process: 1) formulating the substrate in freshly configured reaction buffer • 2) adding the required coenzyme factor to the above substrate solution • 3) adding kinase to the substrate solution and mixing gently • 4) adding the compounds dissolved in 100% DMSO to the above kinase reaction mixture, mixed well and incubating for 20 min at room temperature • 5) adding ^33P-ATP (specific activity 10 μCi/μL) to the reaction mixture to initiate the reaction and incubating for 2 h at room temperature • 6) detection of kinase activity by filter-binding The experiment data is shown in table 6: […]

For another experiment, the target named is FGFR3 (Homo sapiens (Human), UniProt P22607). The experiment is described as above. It counts as biochemical. Particulars: ATP at Km, filter-binding, read-out: IC50(nM) value of compounds, FGFR3. As to the method: as §2, §3, §4
Experiment [12] concerns the target T1, FGFR4. The description is as above. The experiment is classed as biochemical. Conditions: ATP at Km, filter-binding, read-out: IC50(nM) value of compounds, FGFR4. As to the method: as §2, §3, §4
Experiment [13] relates to cell lines with abnormal changes in FGFR signaling pathway. As to the kind of experiment: cells. Particulars: Homo sapiens, read-out: IC50 value. The method, then: Test method: 100 μl of the cell suspension was added to a 96-well plate and placed in a CO2 incubator overnight. […] The test compound or DMSO was transferred to the corresponding cell wells respectively and was incubated for 96 hrs in 5% CO2 at 37° C. 100 μl of CellTiter-Glo reagent was added to the assay plate and incubated for 10 min at room temperature to stabilize the luminescence signal. The IC50 value was calculated by recording the RLU (relative luminescence unit) using Enspire.

The next experiment concerns SNU-16 cells. As to the kind of experiment: Cell proliferation assay on SNU-16, CellTiter Glo (Table 8). The experiment is classed as cell-based, human. Conditions: 96 hrs, class symbols, read-out: IC50(nM) value of compounds on SNU-16 cells.
Excerpt: as §1

The mark [14] stands for this setting: Homo sapiens, MDA-MB-453, 96 hrs.
Setting [15] is: Homo sapiens, NCI-H1581, 96 hrs.

T1 sequence (P22455 22-802): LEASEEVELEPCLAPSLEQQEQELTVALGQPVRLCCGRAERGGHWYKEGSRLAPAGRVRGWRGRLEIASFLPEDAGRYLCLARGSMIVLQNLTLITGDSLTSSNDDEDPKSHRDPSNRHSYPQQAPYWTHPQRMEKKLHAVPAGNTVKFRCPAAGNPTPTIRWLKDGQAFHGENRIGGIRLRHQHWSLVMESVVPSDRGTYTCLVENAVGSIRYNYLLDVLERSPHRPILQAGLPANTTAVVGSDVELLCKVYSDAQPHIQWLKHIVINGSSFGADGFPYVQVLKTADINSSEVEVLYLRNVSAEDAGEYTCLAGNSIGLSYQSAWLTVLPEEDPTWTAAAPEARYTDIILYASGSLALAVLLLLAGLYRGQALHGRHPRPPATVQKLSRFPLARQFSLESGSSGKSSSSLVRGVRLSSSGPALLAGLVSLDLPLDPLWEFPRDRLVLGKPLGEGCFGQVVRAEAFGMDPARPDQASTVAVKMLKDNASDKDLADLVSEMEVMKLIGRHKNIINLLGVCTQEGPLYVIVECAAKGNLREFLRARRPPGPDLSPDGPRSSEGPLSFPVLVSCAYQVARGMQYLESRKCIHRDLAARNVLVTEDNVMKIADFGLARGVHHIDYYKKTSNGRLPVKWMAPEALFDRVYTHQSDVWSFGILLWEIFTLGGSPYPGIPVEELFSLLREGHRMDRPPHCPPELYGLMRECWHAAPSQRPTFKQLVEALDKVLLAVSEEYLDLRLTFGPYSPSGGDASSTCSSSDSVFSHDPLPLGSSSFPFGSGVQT
Sequence of FGFR2 (P21802 22-821): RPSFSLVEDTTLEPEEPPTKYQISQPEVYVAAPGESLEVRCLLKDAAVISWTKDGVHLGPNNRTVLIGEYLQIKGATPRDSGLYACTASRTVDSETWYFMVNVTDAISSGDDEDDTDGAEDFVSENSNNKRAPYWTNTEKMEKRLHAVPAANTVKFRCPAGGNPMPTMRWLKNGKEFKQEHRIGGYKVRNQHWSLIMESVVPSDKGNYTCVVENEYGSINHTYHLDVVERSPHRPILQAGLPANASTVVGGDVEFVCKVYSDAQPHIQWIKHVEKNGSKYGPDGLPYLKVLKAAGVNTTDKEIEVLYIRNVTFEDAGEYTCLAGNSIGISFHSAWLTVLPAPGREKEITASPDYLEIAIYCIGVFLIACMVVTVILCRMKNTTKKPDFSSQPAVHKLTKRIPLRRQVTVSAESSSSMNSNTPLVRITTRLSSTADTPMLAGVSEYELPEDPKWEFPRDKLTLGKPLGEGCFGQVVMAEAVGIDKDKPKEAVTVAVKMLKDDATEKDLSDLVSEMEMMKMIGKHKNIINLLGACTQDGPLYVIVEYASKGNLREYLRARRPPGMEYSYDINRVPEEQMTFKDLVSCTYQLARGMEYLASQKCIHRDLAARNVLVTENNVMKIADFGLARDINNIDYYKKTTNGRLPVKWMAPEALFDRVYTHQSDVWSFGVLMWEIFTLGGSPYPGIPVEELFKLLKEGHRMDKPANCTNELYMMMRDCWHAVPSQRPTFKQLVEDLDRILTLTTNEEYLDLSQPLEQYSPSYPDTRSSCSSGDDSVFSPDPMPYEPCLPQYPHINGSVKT
Sequence of FGFR3 (P22607 23-806): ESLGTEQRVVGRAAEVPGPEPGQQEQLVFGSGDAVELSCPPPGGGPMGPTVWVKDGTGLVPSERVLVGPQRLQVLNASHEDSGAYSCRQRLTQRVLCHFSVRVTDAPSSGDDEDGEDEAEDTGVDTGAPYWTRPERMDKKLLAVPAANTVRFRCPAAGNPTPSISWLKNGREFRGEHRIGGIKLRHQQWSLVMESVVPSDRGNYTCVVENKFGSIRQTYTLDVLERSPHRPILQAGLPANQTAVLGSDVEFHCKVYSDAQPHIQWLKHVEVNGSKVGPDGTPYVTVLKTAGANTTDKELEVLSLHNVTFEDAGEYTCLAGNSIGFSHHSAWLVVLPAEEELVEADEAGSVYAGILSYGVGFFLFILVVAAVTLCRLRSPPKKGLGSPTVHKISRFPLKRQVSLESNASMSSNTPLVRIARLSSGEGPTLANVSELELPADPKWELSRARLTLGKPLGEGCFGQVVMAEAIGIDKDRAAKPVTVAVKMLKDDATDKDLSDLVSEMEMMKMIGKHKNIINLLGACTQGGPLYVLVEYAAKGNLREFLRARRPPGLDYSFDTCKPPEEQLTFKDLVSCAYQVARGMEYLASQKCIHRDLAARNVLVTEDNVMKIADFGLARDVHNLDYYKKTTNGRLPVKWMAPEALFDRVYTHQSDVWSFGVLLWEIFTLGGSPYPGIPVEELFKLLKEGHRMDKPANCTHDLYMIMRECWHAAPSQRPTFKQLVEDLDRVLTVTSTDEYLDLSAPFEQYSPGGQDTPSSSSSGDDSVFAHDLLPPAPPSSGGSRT

One may read the IC50 as the midpoint of a concentration-inhibition curve. For `CCN1CCN(c2ccc(Nc3cc(N(C)C(=O)Nc4c(Cl)c(OC)cc(OC)c4Cl)ncn3)cc2)CC1` [BGJ398, Infigratinib], the IC50 with NCI-H1581 cells (Homo sapiens, NCI-H1581, CellTiter 96 AQueous (144 hrs) or CellTiter Glo (96 hrs), numeric values, read-out: IC50(nM) value of compounds on NCI-H1581 cells) was found to be 3.4 nM; in [1] (Homo sapiens, RT-112, 96 hrs), 4.4 nM; in experiment [2] (Homo sapiens, OPM-2, 96 hrs) it was 18 nM; in experiment [3] (Homo sapiens, NCI-H716, 96 hrs), 4.6 nM; in experiment [4] (Homo sapiens, MFE-296, 96 hrs), 51.4 nM; in [5] (Homo sapiens, JHH7, 96 hrs), 54.1 nM. Also, the IC50 in experiment [6] (Homo sapiens, DMS-114, 96 hrs) worked out at 33.6 nM; in [7] (Homo sapiens, SNU-16, 96 hrs), 9.5 nM; in [8] (setting [14]), 544 nM; in [9] (setting [15]), 18.2 nM; in experiment [10] (Homo sapiens), 16.9 nM.
`CCN1CCN(c2ccc(Nc3ncc4cc(-c5cc(OC)cc(OC)c5Cl)c5nncn5c4n3)cc2)CC1` [Compound 4, 6-(2-chloro-3,5-dimethoxyphenyl)-N-(4-(4-ethylpiperazin-1-yl)phenyl)-[1,2,4]triazolo[4′,3′:1,6]pyrido[2,3-d]pyrimidin-2-amine]: the IC50 on FGFR4 [11] was 27 nM; on FGFR2 it was 0.16 nM; at FGFR3 it was 1.34 nM; at FGFR4 [12], 5.06 nM; with NCI-H1581 cells (Homo sapiens, NCI-H1581, read-out: IC50(nM) value of compounds on NCI-H1581 cells), 0.4 nM; in [1] (Homo sapiens, RT-112, 96 hrs), 1 nM. Also, the IC50 in experiment [2] (Homo sapiens, OPM-2, 96 hrs) worked out at 4 nM; in experiment [3] (Homo sapiens, NCI-H716, 96 hrs), 0.5 nM; in experiment [4] (Homo sapiens, MFE-296, 96 hrs), 2.7 nM; in experiment [5] (Homo sapiens, JHH7, 96 hrs), 6.6 nM; in [6] (Homo sapiens, DMS-114, 96 hrs) it was 7.4 nM; in experiment [7] (Homo sapiens, SNU-16, 96 hrs), 1.1 nM. For the same compound, the half-maximal inhibitory concentration (IC50) in experiment [8] (setting [14]) is 61.3 nM; in experiment [9] (setting [15]) it was 1.2 nM; in experiment [10] (Homo sapiens), 1.9 nM; in [13] it was 0.5 to 2.7 nM.
Turning to `COc1cc(OC)cc(N(CCNC(C)C)c2ccc3ncc(-c4cnn(C)c4)nc3c2)c1` [JNJ42756493], the IC50 with NCI-H1581 cells (CellTiter 96 AQueous (144 hrs) or CellTiter Glo (96 hrs), numeric values, read-out: IC50(nM) value of compounds on NCI-H1581 cells) is 0.5 nM; in the experiment on SNU-16 cells, under 1 nM; in experiment [1] (96 hrs), 0.8 nM; in [2] (96 hrs), 2.5 nM; in experiment [3] (96 hrs), 0.6 nM; in experiment [4] (96 hrs), 16.7 nM. For the same compound, the IC50 in experiment [5] (96 hrs) came out at 3.8 nM; in [6] (96 hrs), 14.8 nM; in experiment [7] (96 hrs), 1.2 nM; in experiment [8] (96 hrs), 11 nM; in experiment [9] (96 hrs), 1.5 nM; in experiment [10] it was 2.4 nM.
